TGI data for eleven molecules are collected here from PubChem BioAssay (NCI).

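Interpolation was linear, between the two tested concentrations surrounding the appropriate level; five concentrations were tested over 48 hours in 96-well plates. TGI denotes the concentration required for complete inhibition of growth.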

Common to all, as to assay: inhibition of tumour cell growth, NCI panel, 48 h
The subject of test [1] is 786-0 renal.
The subject of test [2] is HT29 colon.
Test [3] relates to TK-10 renal.
In test [4] the test system is ACHN renal.
Test [5] concerns NCI-H23 lung.
Test [6] concerns SW-620 colon.
Test [7] relates to SF-295 CNS.
The subject of test [8] is HOP-92 NSCLC.
The subject of test [9] is HCC-2998 colon.
The test system of test [10] is SF-268 CNS.
The test system of test [11] is UACC-62 melanoma.
The subject of test [12] is UO-31 renal.
Test [13] concerns RXF 393 renal.
The test system of test [14] is BT-549 breast.

Regarding `CCOC(=O)/C(=C/c1ccco1)P(=O)(OCC)OCC`, the TGI in [1], in [2], in [3], in test [4], in test [5] and in test [6] was over 100 µM in each case. Further, the TGI in test [7], in test [8], in [9], in test [10], in test [11] and in test [12] was over 100 µM throughout.

As to `CCNC(=S)N/N=C/c1ccccn1`, the TGI in test [1] is over 100 µM; in test [2], over 100 µM; in test [3], over 100 µM; in test [4], 70.7 µM; in test [5], 84.8 µM; in test [6] it was over 100 µM. For the same molecule, the TGI was over 100 µM in test [13]; over 100 µM in [7]; 7.56 µM in test [10]; 26.1 µM in test [11]; 87.6 µM in test [14]; 23.6 µM in [12].

As to `NC(=O)NC(=NCc1ccccc1)NCc1ccccc1`, the TGI in [1], in test [2], in test [3], in test [4], in [5] and in test [6] was over 100 µM in each case. In addition, the TGI in [7], in test [8], in test [9], in test [10], in [11] and in test [12] was over 100 µM in each case.

As for `CCOC(=O)c1c(NC(=S)Nc2ccc(C)cc2)sc2c1CCN(C)C2`, the TGI in test [1], in [2], in test [3], in test [4], in [5] and in [13] was over 100 µM each time. Moreover, the TGI in [7], in test [10], in [11], in test [14] and in test [12] was over 100 µM throughout.

For the molecule `O=C(c1ccccc1)[C@H]1Nc2cnccc2C2c3ccccc3CC21` (some centres undefined), the TGI in [1] is over 67 µM; in [2], 50.5 µM; in test [3], over 81.9 µM; in test [4] it was 37.1 µM; in test [5], 30.6 µM; in test [6], 47.3 µM. The TGI in test [13] was 50.4 µM; in test [7], 48.3 µM; in [8], 37.4 µM; in [9] it was over 100 µM; in test [10] it was 59.9 µM; in test [11] it was over 58.8 µM. In addition, in test [12], the TGI is over 40.4 µM.

As for `CN1c2ccccc2C(=O)NC12CCN(CC1COc3ccccc3O1)CC2` (centres undefined), the TGI in test [1], in [2], in test [3], in [4], in test [5] and in test [6] was over 100 µM each time. In addition, the TGI in test [13] is over 100 µM; in [7], over 100 µM; in [8] it was 71.3 µM; in [9], over 100 µM; in test [10] it was over 100 µM; in test [11], over 100 µM. Also, the TGI in [12] was over 100 µM.

For the molecule `COC(=O)C(=O)C(C(=O)C(=O)Nc1cc([N+](=O)[O-])ccc1C#N)c1nc2ccccc2[nH]c1=O` (centres undefined), the TGI in test [1], in [2], in test [3], in test [4], in [5] and in test [6] was over 100 µM each time. Besides, the TGI in test [13], in test [7], in test [8], in test [9], in [10] and in test [11] was over 100 µM in each case. Besides, in [12], the TGI was over 100 µM.

Regarding `C=C1CC2C(=O)N(c3ccccc3)C(=O)C2CC1n1[nH]c(=O)n(Cc2ccccc2)c1=O` (centres undefined), the TGI in test [1], in [2], in test [3], in test [4], in test [5] and in test [6] was over 100 µM in each case. For the same molecule, the TGI in [13], in [7], in test [8], in [9], in test [10] and in test [11] was over 100 µM in each case. The TGI in test [12] is over 100 µM.

Regarding `COC(=O)C(CCCCNC(=O)CNC(=O)OCc1ccccc1)NC(=O)C(CCCCNC(=O)CNC(=O)OCc1ccccc1)NC(=O)OCc1ccccc1` (centres undefined), the TGI in [1], in test [2], in test [3], in [4], in [5] and in test [6] was over 100 µM each time. For the same molecule, the TGI in [9], in test [10], in test [11], in test [14] and in test [12] was over 100 µM in each case.

For `CNc1ccc2c(c1)Cc1ccccc1-2`, the TGI is over 100 µM in [1]; over 100 µM in test [2]; 93.8 µM in test [3]; over 100 µM in test [4]; over 100 µM in [5]; over 100 µM in test [6]. Besides, the TGI in [13] was over 100 µM; in [7], over 100 µM; in test [8], 64.1 µM; in [9] it was over 100 µM; in test [10], over 100 µM; in test [11] it was 89.7 µM. In test [12], this molecule displayed a TGI of over 100 µM.

Regarding `Cc1ncc([N+](=O)[O-])n1CCNC(=O)CCCCn1ccnc1[N+](=O)[O-]`, the TGI in test [1], in [2], in [4], in test [5], in test [6] and in test [7] was over 100 µM each time. Besides, the TGI in [9], in [10], in test [11], in test [14] and in test [12] was over 100 µM in each case.
